The subject of assay [1] is interferon regulatory factor (IRF) pathway in THP-1 dual cells. Description: THP-1 Dual reporter assay, IRF pathway (luciferase). The assay is classed as cell-based. To be noted: Homo sapiens, THP1-Dual; 18 h stimulation, luminescence; read-out: THP1 Dual EC50 (μM) IRF. The protocol: (§1) Compounds of the present invention were tested for their activity using THP-1 dual cells (Invivogen, cat no. thpd-nfis) allowing for simultaneous study of NF-κB pathway and the interferon regulatory factor (IRF) pathway. THP-1 dual cells contain luciferase reporter gene under the control of an ISG54 (interferon-stimulated gene) minimal promoter in conjunction with five interferon-stimulated response elements and a secreted embryonic alkaline phosphatase reporter gene under the control an IFN (interferon)-β minimal promoter fused to five copies of the NF-κB consensus transcriptional response element with three copies of the c-Rel binding site. Following 18 h of stimulation with STING agonist, medium was collected and transferred onto fresh cell culture plate. To verify activity of the IRF pathway, luminescence activity was measured with standard laboratory plate reader immediately after addition 10 μl of the medium to 40 or 50 μl of luminescence reagent (Invivogen, cat. No. rep-qlc2). To verify activity of NF-κB pathway, 10 or 20 μl of the medium was mixed with 80 μl of a detection medium (Invivogen, cat. No. rep-qb2) and incubated for 1 or 2 hours at 37° C. in a humidified atmosphere containing 5% CO2. Next, absorbance at 630 or 655 nm was recorded using standard laboratory plate reader.

Assay [2] concerns NF-κB pathway in THP-1 dual cells. Description: THP-1 Dual reporter assay, NF-κB pathway (SEAP). Type of assay: cell-based. To be noted: Homo sapiens, THP1-Dual; 18 h stimulation, absorbance at 630 or 655 nm; read-out: THP1 Dual EC50 (μM) NFkB. How it is done:
as §1
(In general: In a reporter assay the amount or activity of a reporter protein is the signal.)

One may read the EC50 as the concentration at which the effect is half-maximal.

Structures can show the parent of a compound that is named as a salt.

As to `C#CCOCCOCCOCCOCCOCCC(=O)Nc1ccc(COC(=O)N(C)[C@H]2CCN(c3cc4c(cc3F)c(=O)c(CN(Cc3ccnc(C)c3)[C@H]3CCCN(c5ccc(C)nc5)C3)cn4C3CC3)C2)cc1` [Example 58A, [4-(4,7,10,13,16-pentaoxanonadec-18-ynamido)phenyl]methyl N-[(3S)-1-[1-cyclopropyl-6-fluoro-3-({[(3S)-1-(6-methylpyridin-3-yl)piperidin-3-yl][(2-methylpyridin-4-yl)methyl]amino}methyl)-4-oxo-1,4-dihydroquinolin-7-yl]pyrrolidin-3-yl]-N-methylcarbamate], the EC50 in assay [1] and in assay [2] was less than 1 µM in each case.

As to `C#CCOCCOCCOCCOCCOCCC(=O)Nc1ccc(N2CCC[C@H](N(Cc3ccnc(OC)c3)Cc3cn(C4CC4)c4cc(F)c(F)cc4c3=O)C2)cn1` [Example 4A, N-{5-[(3S)-3-{[(1-cyclopropyl-6,7-difluoro-4-oxo-1,4-dihydroquinolin-3-yl)methyl][(2-methoxypyridin-4-yl)methyl]amino}piperidin-1-yl]pyridin-2-yl}-4,7,10,13,16-pentaoxanonadec-18-ynamide], the EC50 in assay [1] and in assay [2] was less than 1 µM in each case.

Take `Cc1ccc(N2CCC[C@H](N(Cc3ccnc(C)c3)Cc3cn(C4CC4)c4cc(N5CC[C@H](O)C5)c(F)cc4c3=O)C2)cn1` [Example 39, 1-cyclopropyl-6-fluoro-7-[(3S)-3-hydroxypyrrolidin-1-yl]-3-({[(3S)-1-(6-methylpyridin-3-yl)piperidin-3-yl][(2-methylpyridin-4-yl)methyl]amino}methyl)-1,4-dihydroquinolin-4-one hydrochloride]: the EC50 in assay [1] and in assay [2] was less than 1 µM each time.

Take `Cc1ccc(N2CCC[C@H](N(Cc3ccnc(C)c3)Cc3cn(C4CC4)c4cc(N5CC[C@@H](N(C)CCOCCOCCOCCOCCNC(=O)OC(C)(C)C)C5)c(F)cc4c3=O)C2)cn1` [Example 55B, tert-Butyl N-{2-[(3R)-1-[1-cyclopropyl-6-fluoro-3-({[(3S)-1-(6-methylpyridin-3-yl)piperidin-3-yl][(2-methylpyridin-4-yl)methyl]amino}methyl)-4-oxo-1,4-dihydroquinolin-7-yl]pyrrolidin-3-yl]-5,8,11,14-tetraoxa-2-azahexadecan-16-yl}carbamate]: the EC50 in assay [1] and in assay [2] was less than 1 µM each time.

Turning to `Cc1ccc(N2CCC[C@H](N(Cc3ccnc(C)c3)Cc3cn(C4CC4)c4cc(N5CC[C@@H](N(C)C(=O)CCOCCOCCOCCN)C5)c(F)cc4c3=O)C2)cn1` [Example 55D, 3-{2-[2-(2-aminoethoxy)ethoxy]ethoxy}-N-[(3R)-1-[1-cyclopropyl-6-fluoro-3-({[(3S)-1-(6-methylpyridin-3-yl)piperidin-3-yl][(2-methylpyridin-4-yl)methyl]amino}methyl)-4-oxo-1,4-dihydroquinolin-7-yl]pyrrolidin-3-yl]-N-methylpropanamide formate], the EC50 in assay [1] and in assay [2] was 1 to 10 µM throughout.

As to `Cc1cc(CN(Cc2cn(C3CC3)c3cc(OCCO)c(F)cc3c2=O)[C@H]2CCCN(c3cncc(C(F)(F)F)c3)C2)ccn1` [Example 93, 1-cyclopropyl-6-fluoro-7-(2-hydroxyethoxy)-3-({[(2-methylpyridin-4-yl)methyl][(3S)-1-[5-(trifluoromethyl)pyridin-3-yl]piperidin-3-yl]amino}methyl)-1,4-dihydroquinolin-4-one hydrochloride], the concentration for a half-maximal effect (EC50) in assay [1] and in assay [2] was less than 1 µM throughout.

Consider `Cc1ccc(N2CCC[C@H](N(Cc3ccnc(C)c3)Cc3cn(C4CC4)c4cc(OCCN(C)C(=O)OCc5ccc(NC(=O)[C@H](CCCNC(N)=O)NC(=O)[C@@H](NC(=O)CCOCCOCCOCCN=[N+]=[N-])C(C)C)cc5)c(F)cc4c3=O)C2)cn1` [Example 11H, {4-[(2S)-2-[(2S)-2-(3-{2-[2-(2-azidoethoxy)ethoxy]ethoxy}propanamido)-3-methyl-butanamido]-5-(carbamoylamino)pentanamido]phenyl}methyl N-(2-{[1-cyclopropyl-6-fluoro-3-({[(3S)-1-(6-methylpyridin-3-yl)piperidin-3-yl][(2-methylpyridin-4-yl)methyl]amino}methyl)-4-oxo-1,4-dihydroquinolin-7-yl]oxy}ethyl)-N-methylcarbamate], for which the EC50 in assay [1] and in assay [2] was greater than 10 µM throughout.

Consider `C#CCOCCOCCOCCOCCOCCC(=O)OCCOc1cc2c(cc1F)c(=O)c(CN(Cc1ccnc(C)c1)[C@H]1CCCN(c3ccc(C)nc3)C1)cn2C1CC1` [Example 47A, 2-{[1-cyclopropyl-6-fluoro-3-({[(3S)-1-(6-methylpyridin-3-yl)piperidin-3-yl][(2-methylpyridin-4-yl)methyl]amino}methyl)-4-oxo-1,4-dihydroquinolin-7-yl]oxy}ethyl 4,7,10,13,16-pentaoxanonadec-18-ynoate], for which the EC50 in assay [1] and in assay [2] was less than 1 µM each time.

On to `Cc1cc(CN(Cc2cn(C3CC3)c3cc(N4CC[C@@H](O)C4)c(F)cc3c2=O)[C@H]2CCCN(c3noc(C)n3)C2)ccn1` [Example 48, 1-cyclopropyl-6-fluoro-7-[(3R)-3-hydroxypyrrolidin-1-yl]-3-({[(3S)-1-(5-methyl-1,2,4-oxadiazol-3-yl)piperidin-3-yl][(2-methylpyridin-4-yl)methyl]amino}methyl)-1,4-dihydroquinolin-4-one hydrochloride], for which the EC50 in assay [1] was less than 1 µM; in assay [2], 1 to 10 µM.

As for `Cc1ccc(N2CCC[C@H](N(Cc3ccnc(C)c3)Cc3cn(C4CC4)c4cc(OCCN(C)C(=O)CCOCCOCCOCCOCCOCCOCCOCCC(=O)O)c(F)cc4c3=O)C2)cn1` [Example 11E, 1-[(2-{[1-cyclopropyl-6-fluoro-3-({[(3S)-1-(6-methylpyridin-3-yl)piperidin-3-yl][(2-methylpyridin-4-yl)methyl]amino}methyl)-4-oxo-1,4-dihydroquinolin-7-yl]oxy}ethyl)(methyl)carbamoyl]-3,6,9,12,15,18,21-heptaoxatetracosan-24-oic acid], the EC50 in assay [1] and in assay [2] was 1 to 10 µM throughout.

As for `Cc1ccc(N2CCC[C@H](N(Cc3ccnc(C)c3)Cc3cn(C4CC4)c4cc(N5CC[C@H](CNC(=O)CCOCCOCCOCCOCCN)C5)c(F)cc4c3=O)C2)cn1` [Example 15A, 1-amino-N-{[(3R)-1-[1-cyclopropyl-6-fluoro-3-({[(3S)-1-(6-methylpyridin-3-yl)piperidin-3-yl][(2-methylpyridin-4-yl)methyl]amino}methyl)-4-oxo-1,4-dihydroquinolin-7-yl]pyrrolidin-3-yl]methyl}-3,6,9,12-tetraoxapentadecan-15-amide], the EC50 in assay [1] and in assay [2] was 1 to 10 µM throughout.

For the compound `Cc1ccc(N2CCC[C@H](N(Cc3ccnc(C)c3)Cc3cn(C4CC4)c4cc(OCCN(C)C(=O)CCOCCOCCOCCOCCOCCOCCOCCN)c(F)cc4c3=O)C2)cn1` [Example 11D, 1-amino-N-(2-{[1-cyclopropyl-6-fluoro-3-({[(3S)-1-(6-methylpyridin-3-yl)piperidin-3-yl][(2-methylpyridin-4-yl)methyl]amino}methyl)-4-oxo-1,4-dihydroquinolin-7-yl]oxy}ethyl)-N-methyl-3,6,9,12,15,18,21-heptaoxatetracosan-24-amide], the EC50 in assay [1] and in assay [2] was 1 to 10 µM each time.

Source of the values: patent US12643879B2, “Functionalized heterocyclic compounds as modulators of stimulator of interferon genes (STING)” (RYVU THERAPEUTICS S.A., priority 2019, dated 2026).
